The subject of the test is Pseudomonas putida (DSM 25068). In words: Minimum inhibitory concentration and synergy index (Kull) of CMIT combinations in Müller-Hinton broth microtiter plates. It is filed as cell-based. The settings on record: 48 hours at 30° C.; for synergy index: SI=Qa/QA+Qb/QB. The text has this: The synergism of a combination of 5-chloro-2-methylisothiazolin-3-one, containing 0.003 wt. %, in relation to the total proportion of 5-chloro-2-methyl-4-isothiazolin-3-one, of 2-methylisothiazolin-3-one, each time with a biocide/substance selected from the group of 1,2-benzisothiazolin-3-one (BIT), 2-bromo-2-nitropropane-1,3-diol (Bronopol), and zinc, was investigated for a synergistic interaction.
The test organisms used were the Gram-negative bacterium Pseudomonas putida (DSM 25068). For this, mixtures with different concentrations of the respective active substances were prepared and tested in regard to their effect on Pseudomonas putida. The testing was done in Müller-Hinton broth MHB (pH 7.0) with a cell density of 10^6 germs per ml.
The incubation time of the microtiter plates was 48 hours at 30° C. After 48 hours, the batches were evaluated for turbidity due to growth and, in addition, the optical density was determined by photometry. In this way, the minimum inhibitory concentrations (MHK) were determined for the two active substances individually and in combination.
The resulting synergism was represented numerically by calculating the synergy index (SI). The calculation was done by the customary method of F. C. Kull et al., Applied Microbiology, Vol. 9 (1961), p. 538. Loc. cit., the SI is calculated by the following formula: synergy index SI=Qa/QA+Qb/QB Qa=concentration of component A in the mixture A+B QA=concentration of component A as solitary biocide Qb=concentration of component B in the mixture A+B QB=concentration of component B as solitary biocide
If the synergy index has a value over 1, this means that an antagonism is present. If the synergy index takes on the value 1, this means that an addition of the effect of the two biocides/compounds is present. If the synergy index takes on a value below 1, this means that a synergism exists for the two biocides.

Setting [1] is: CMIT and BIT, below 1 = synergism.
Setting [2] is: single agent, MHB pH 7.0, 10^6 germs per ml.
Setting [3] is: CMIT and Bronopol, below 1 = synergism.
Where [4] appears, read: CMIT and zinc (ZnCl2), QB assumed 240 ppm.

Marks after values point to notes of the source that are not given here.

For the molecule `O=c1[nH]sc2ccccc12` [BIT, 1,2-benzisothiazolin-3-one], the synergy index under setting [1] is given as 1.00. The “concentration as solitary agent indicating an end point (minimum inhibitory concentration, QA/QB)” value under setting [2] is on record as 100 ppm.

On to `O=[N+]([O-])C(Br)(CO)CO` [Bronopol, 2-bromo-2-nitropropane-1,3-diol], for which the synergy index under setting [3] amounted to 1.00. Also, the MIC (Pseudomonas putida, DSM25068, single agent, MHB pH 7.0, 10^6 germs per ml, read-out: concentration as solitary agent indicating an end point (minimum inhibitory concentration, QA/QB)) was 15 µg/mL.

Turning to `Cn1sc(Cl)cc1=O` [CMIT, 5-chloro-2-methylisothiazolin-3-one], the synergy index was determined as 1.00 under setting [1], 1.00 under setting [3] and 1.00 under setting [4]. Moreover, the “concentration as solitary agent indicating an end point (minimum inhibitory concentration, QA/QB)” value under setting [2] worked out at 1.5 ppm.

As to `[Cl-].[Cl-].[Zn+2]` [Zn, zinc chloride], the synergy index under setting [4] was 1.00. The “concentration as solitary agent indicating an end point (minimum inhibitory concentration, QA/QB)” value under setting [2] was > 240* ppm.

Values taken from patent publication US11116217B2, “Synergistic biocidal compositions containing 5-chloro-2-methylisothiazolin-3-one” (Thor GmbH, priority 2016, dated 2021).
